Values of other authors, collected in patent publication US4606909A, “Pharmaceutical multiple-units formulation” (priority 1981, dated 1986).

settings: ambient temperature

SMILES | parts by volume of water required to dissolve 1 part by weight of the substance
CC(=O)S[C@@H]1CC2=CC(=O)CC[C@]2(C)[C@H]2CC[C@@]3(C)[C@@H](CC[C@@]34CCC(=O)O4)[C@H]12 [spironolactone] | more than 1000 parts by volume of water
CCCCNC(=O)NS(=O)(=O)c1ccc(C)cc1 [tolbutamide] | more than 1000 parts by volume of water
C[C@]12CC[C@H]3[C@@H](CCC4=CC(=O)CC[C@@]43C)[C@@H]1CC[C@@H]2O [testosterone] | more than 1000 parts by volume of water
